Source: patent publication US6358713B1, “In vitro ribosome evolution” (Johns Hopkins University, priority 1999, dated 2002)

Tests used:
23S rRNA (2555 loop) = assay: Antibiotic inhibition of crosslinking by s^4TCPm to 23S rRNA; assay type: binding, E. coli; details: antibiotics 0.1 mM (neomycin 0.01 mM, puromycin 1 mM); limiting [32P]-s^4TCPm
Experimental: FIGS. 5A and 5B are graphs that indicate antibiotic inhibition of crosslinking by s^4TCPm to 23S rRNA (5A) and of peptidyl transferase activity of crosslinked complex (s^4TCPm-50S) (5B). Values were normalized to 1.0 for reactions where no antibiotics were included.
(§1) Kinetic analysis of crosslinked ribosomal complex: Crosslinked 50S subunits were separated from 30S subunits, gene 32 mRNA, and deacylated tRNA^Phe on 5%-20% sucrose gradients in 10 mM Tris-Cl, pH 7.5, 30 mM NH4Cl, and 1 mM MgCl2, and spun in an SW41 rotor at 19,000 rpm for 16 hours. Excess sucrose was removed and the buffer exchanged to 20 mM Tris, pH 7.5, 100 mM NH4Cl, and 5 mM MgCl2 using Centricon 100 tubes spun at 2600 rpm in an SS34 rotor. Peptidyl transferase assays were done as follows: crosslinked 50S subunit complexes (0.5 μM) were incubated in standard fragment reaction conditions (50 mM Tris, pH 8.3, 0.4 M potassium acetate (KOAc), 60 mM MgCl2, and 33% MeOH) with CACCA-(N-Ac-Phe) (2 μM). Aliquots were removed from the reaction at the indicated times, rRNAs phenol extracted, digested with RNase T1, and the fragments resolved on 24% polyacrylamide/6 M urea gels. […] When incubated with ribosomes at these concentrations, these antibiotics protect specific positions in 16S and 23S rRNA from chemical modification. Antibiotic inhibition of crosslinking was performed using limiting [^32P]-s^4TCPm and a single time point (2 minutes) of exposure to various lengths of time (0, 5, 10, 20, or 40 minutes) to long-wave length (366 nm) UV light (in the linear range of the reaction) under standard conditions. Ribosomal RNAs were phenol extracted and analyzed on a 3.8% polyacrylamide—7 M urea gel. Antibiotic inhibition of PT activity was performed with the fragment P-site substrate, CACCA-(N-Ac-Phe), supplied at a concentration of 0.3 μM; a single linear time point of 4 minutes was used for analysis.
While sparsomycin is known to stabilize P-site substrate binding, it also competes effectively for binding with puromycin in the A site. As sparsomycin is ineffective in the context of a covalently tethered puromycin substrate, but active in preventing the crosslinking of s^4TCPm, it seems likely that its mode of inhibition results primarily from its effect on A-site interactions. Puromycin had no effect on the peptidyl transferase activity of the crosslinked complex, consistent with the high effective concentration of the s^4TCPm substrate covalently bound in the A site. These effects of the various antibiotics on the activity of the 50S subunit-s^4TCPm complex provide further evidence that the synthetic substrate, s^4TCPm, is crosslinked to its physiologically correct binding site.

[1] = system: crosslinked 50S subunit-s^4TCPm complex; assay: Antibiotic inhibition of peptidyl transferase activity of the crosslinked complex (s^4TCPm-50S); assay type: biochemical, E. coli; details: antibiotics 0.1 mM (neomycin 0.01 mM, puromycin 1 mM); CACCA-(N-Ac-Phe) 0.3 μM, 4 minutes
Experimental: Kinetic analysis of crosslinked ribosomal complex: Crosslinked 50S subunits were separated from 30S subunits, gene 32 mRNA, and deacylated tRNA^Phe on 5%-20% sucrose gradients in 10 mM Tris-Cl, pH 7.5, 30 mM NH4Cl, and 1 mM MgCl2, and spun in an SW41 rotor at 19,000 rpm for 16 hours. Excess sucrose was removed and the buffer exchanged to 20 mM Tris, pH 7.5, 100 mM NH4Cl, and 5 mM MgCl2 using Centricon 100 tubes spun at 2600 rpm in an SS34 rotor. Peptidyl transferase assays were done as follows: crosslinked 50S subunit complexes (0.5 μM) were incubated in standard fragment reaction conditions (50 mM Tris, pH 8.3, 0.4 M potassium acetate (KOAc), 60 mM MgCl2, and 33% MeOH) with CACCA-(N-Ac-Phe) (2 μM). Aliquots were removed from the reaction at the indicated times, rRNAs phenol extracted, digested with RNase T1, and the fragments resolved on 24% polyacrylamide/6 M urea gels. […] Antibiotic inhibition of PT activity was performed with the fragment P-site substrate, CACCA-(N-Ac-Phe), supplied at a concentration of 0.3 μM; a single linear time point of 4 minutes was used for analysis.

[2] = system: peptidyl transferase A site of the 50S subunit; assay: Kinetic characterization of A-site substrates in the peptidyl transferase fragment reaction; assay type: biochemical; details: fragment reaction conditions, P-site substrate N-Ac-Met-ACCACC
Experimental: Synthesis of 4-thio-dT-p-C-p-puromycin 5′-Dimethoxytrityl-Nα-trifluoroacetyl-puromycin was attached to alkylamine-derivatized controlled pore glass via a 2′-succinate linkage by standard methods. See, Atkinson and Smith, Solid Phase Synthesis of Oligodeoxyribonucleotides by the Phosphate-triester Method, in Oligonucleotide Synthesis: A Practical Approach, Oxford: IRL Press, pp. 35-81, 1985. 4-Thio-dT-p-C-p-Puromycin (s^4TCPm) was prepared by standard phosphoramidite chemistry using the solid-phase version of puromycin, and rC and 4-thio-dT phosphoramidites (Glen Research Corporation, Sterling, Va.). Deprotection was performed by treatment with 3:1 NH4OH:MeOH/50 mM NaSH overnight at 55° C. Subsequently, 40 equivalents of 1 M tetrabutylammonium fluoride (TBAF) in tetrahydrofuran (THF) were added to the dried product and incubated overnight at room temperature. Finally, 20 mM triethylamine-acetate (pH. 7.0) was added to the reaction mixture, loaded directly on a C18 HPLC column, and eluted with increasing concentrations of acetonitrile (CH3CN). Multiple peaks were collected and the purity of the products was analyzed on a 20% polyacrylamide/7M urea gel following 5′-[^32P]-end-labelling using polynucleotide kinase. Although two peaks appeared to be relatively pure by this analysis, only the slowest migrating peak on the HPLC had any crosslinking ability. Kinetic characterization of s^4TCPm was performed using the tRNA fragment N-Ac-Met-ACCACC, as a P-site substrate, using fragment reaction conditions, and paper electrophoresis analysis of the resulting product, s^4TCPm-N-Ac-Met, as described by Green and Noller, RNA, 1996, 2:1011-1021. This analysis was complicated by the apparent affinity of the compound for both the A and P sites at high concentrations. The P-site affinity may be attributable to wobble pairing between 4-thio-dT (which mimics C74 of tRNA) and G2252 of 23S rRNA. See, Samaha et al., Nature 1995, 377:309-314. […]

[3] = system: 23S rRNA of E. coli tight-couple 70S ribosomes; assay: UV crosslinking of s^4TCPm to ribosomes; assay type: binding
Experimental: (§2) Crosslinking of ribosomes by s^4TCPm: Tight-couple E. coli 70S ribosomes (2 μM) were incubated with 1.2 equivalents (2.4 μM) of gene 32 mRNA and of deacylated CF23 tRNA^Phe in 20 mM Tris, pH 7.5, 30 mM MgCl2, 50 mM NH4Cl, 6 mM 2-mercaptoethanol, and 10% MeOH. Saturating s^4TCPm (20 μM) (or [^32P]-s^4TCPm) was then added and the mixture was incubated at 37° C. for 10 minutes. Crosslinking of s^4TCPm to B. stearothermophilus 70S ribosomes was performed under similar conditions except with 30 mM Tris pH 7.5, 10 mM MgCl2, and 330 mM KCl. Complexes were exposed for varying lengths of time to a hand-held UV light source (UVL-56, Blak-Ray Lamp, UVP, Inc.—366 nm) at a distance of 3 cm. […] Analysis of the amount of substrate crosslinked to the r-proteins was determined as described by Breitmeyer and Noller, J. Mol. Biol., 1976, 101:297-306.
Crosslinking to the peptidyl transferase A site: To target binding of the crosslinking reagent specifically to the peptidyl transferase A site, the P site of E. coli tight-couple 70S ribosomes, programed with a shortened version of bacteriophage T4 gene 32 mRNA, was filled with deacylated tRNA^Phe, followed by binding of radioactively labeled [^32P]-s^4TCPm (FIG. 3B). […] Total RNA was prepared from the UV-irradiated ribosomal complexes by phenol extraction and analyzed on a 3.8% denaturing polyacrylamide gel. […]

[4] = system: B. stearothermophilus 70S ribosomes 23S rRNA; assay: UV crosslinking of s^4TCPm to B. stearothermophilus ribosomes; assay type: binding; details: compared with E. coli ribosomes
Experimental: as §2, with “cm. Intact rRNAs were phenol extracted, and resolved on 3.8% polyacrylamide/7 M urea gels.” for “cm.”
The position of the crosslinked A-site substrate was first localized with a series of RNase H digestions to the region between positions 2538 and 2593 of 23S rRNA. Assignment of the site of crosslinking to position G2553 was achieved using primer extension analysis. Because of the impaired ability of reverse transcriptase to read modified bases on the rRNA template, a major cDNA product was obtained terminating one nucleotide 3′ to the modified base. […]

E. coli 50S subunit = assay: Peptidyl transferase reactivity of the crosslinked complex; assay type: biochemical; details: CACCA-(N-Ac-Phe), fragment reaction conditions
Experimental: as §1, with “Antibiotic inhibition of crosslinking was performed using limiting [^32P]-s^4TCPm and a single time point (2 minutes) of exposure to various lengths of time (0, 5, 10, 20, or 40 minutes) to long-wave length (366 nm) UV light (in the linear range of the reaction) under standard conditions.” left out, “Antibiotic inhibition of PT activity was performed with the fragment P-site substrate, CACCA-(N-Ac-Phe), supplied at a concentration of 0.3 μM; a single linear time point of 4 minutes was used for analysis.” left out

[5] = system: B. stearothermophilus 50S; assay: Peptidyl transferase reactivity of the crosslinked B. stearothermophilus complex; assay type: biochemical; details: minimal P-site substrates
Experimental: as §1, with “Antibiotic inhibition of crosslinking was performed using limiting [^32P]-s^4TCPm and a single time point (2 minutes) of exposure to various lengths of time (0, 5, 10, 20, or 40 minutes) to long-wave length (366 nm) UV light (in the linear range of the reaction) under standard conditions.” left out, “Antibiotic inhibition of PT activity was performed with the fragment P-site substrate, CACCA-(N-Ac-Phe), supplied at a concentration of 0.3 μM; a single linear time point of 4 minutes was used for analysis.” left out

Compound	inhibition of crosslinking of s^4TCPm to the 2555 loop of 23S rRNA (23S rRNA (2555 loop))	inhibition of peptidyl transferase reactivity of the crosslinked complex [1]	Km [2] [µM]	other results
CC[C@H]1OC(=O)[C@H](C)[C@@H](O[C@H]2C[C@@](C)(OC)[C@@H](O)[C@H](C)O2)[C@H](C)[C@@H](O[C@@H]2O[C@H](C)C[C@H](N(C)C)[C@H]2O)[C@](C)(O)C[C@@H](C)C(=O)[C@H](C)[C@@H](O)[C@]1(C)O [erythromycin]	no effect			
O=C(N[C@H](CO)[C@H](O)c1ccc([N+](=O)[O-])cc1)C(Cl)Cl [chloramphenicol]	specifically inhibited	effectively inhibited		
COc1ccc(C[C@H](N)C(=O)N[C@H]2[C@@H](O)[C@H](n3cnc4c(N(C)C)ncnc43)O[C@@H]2CO)cc1 [puromycin]	specifically inhibited	no effect	~400	
neomycin	no effect			
COc1ccc(CC(N)C(=O)NC2C(COP(=O)(O)OC3C(CO)OC(n4ccc(N)nc4=O)C3O)OC(n3cnc4c(N(C)C)ncnc43)C2O)cc1 (stereo not shown) [CPm, C-p-Puromycin]			~10	
4-thio-dT-p-C-p-Puromycin [s^4TCPm]			~10	crosslinking to ribosomal proteins [3]: absence of significant crosslinking; UV irradiation time at which the crosslinking reaction was complete ([3]; 366 nm UV): 10 min; crosslinking efficiency with B. stearothermophilus ribosomes [4]: similarly efficient; crosslinked population reacted with P-site substrate (E. coli 50S subunit; 2 minutes): approximately 50%; crosslinked population reacted with P-site substrate (E. coli 50S subunit; 12 minutes): 85%; peptidyl transferase kinetics slower than E. coli complex [5]: ca. 10 fold
CSC[S@+]([O-])C[C@H](CO)NC(=O)/C=C/c1c(C)[nH]c(=O)[nH]c1=O [sparsomycin]	strongly inhibited	no inhibitory effect		
CO[C@@H]1[C@@H](O[C@@H]2O[C@H](C)[C@@H](O[C@H]3C[C@@](C)(O)[C@@H](OC(=O)CC(C)C)[C@H](C)O3)[C@H](N(C)C)[C@H]2O)[C@@H](CC=O)C[C@@H](C)C(=O)/C=C/[C@@H]2O[C@@H]2C[C@@H](C)OC(=O)C[C@H]1OC(C)=O [carbomycin]	specifically inhibited	effectively inhibited		
